Measurements from patent US20100056948A1, “Stimulation of Satiety Hormone Release” (priority 2008, published 2010).

How the values were obtained:
[1] = test system: rat distal ileum (L-cells); assay: GLP-1 release from isolated rat distal ileum segments into the bathing medium (active GLP-1 ELISA), with or without electrical field stimulation; format: cell-based; conditions: for GLP-1 release, LA alone (mean ± SEM): LA 3 mg/mL 45 min, no E-stim
Procedure: (§1) Female Sprague-Dawley rats, 8-12 weeks weighing 250-300 g were euthanized by CO2 and at least 17 cm of distal ileum was immediately dissected starting at the ileocecal junction. Intraluminal contents were flushed with warm modified Krebs Ringers bicarbonate (KRB) buffer and intestines placed into 50 mL tubes containing oxygenated, cold KRB buffer. Intact segments (1.5 cm) of rat distal ileum were oriented longitudinally, with the oral end fixed in the organ chamber between bipolar stimulating electrodes and the aboral end attached to a solid-state force transducer and submerged in a 10 ml-chamber containing KRB at 37° C. and constantly aerated with 95% O2/5% CO2 (FIG. 1). […] The entire assembly was placed into 37° C. KRB buffer in jacketed 10 mL myobath chambers. The length of each segment was adjusted to an initial resting tension of 1 g and maintained at 37° C. in a KRB buffer or KRB containing linoleic acid (LA, 3 mg/mL) and a dipeptidyl peptidase-4 inhibitor (to prevent proteolysis of GLP-1). Contractile activity was digitized and data acquired for off line analysis using PowerLab hardware and Chart software (ADInstruments, Colorado Springs, Colo.). In separate experiments, segments were incubated in KRB or KRB+LA in the presence or absence of electrical field stimulation continuously for 45 min. Samples of the bathing solutions taken at 45 min and mucosal epithelial scrapings were stored frozen (minus 80° C.).
Active GLP-1 concentration in thawed aliquots was measured by fluorescence on a plate reader using an ELISA (Linco Research, St. Charles, Mo.) with a detection range of 2-100 pM. This method measures both biologically active forms of GLP-1, that is GLP-1(7-36) and (GLP-1(7-36)) amide, that are currently known to be released by the intestinal mucosa. Measurements of GLP-1 were normalized to concentration in 10 mL volume and reported as pM. The mean and SEM GLP-1 release was calculated for each treatment. For each electrical stimulation condition (+/−LA) there were 2-6 rats with 2-4 segments of tissue per rat per condition.
Statistical analysis was performed that included all conditions (with condition defined by the combination of frequency, voltage and duration of the electrical stimulation) and included a term for condition, treatment (LA alone or LA plus electrical stimulation) as a repeated factor, and the interaction between the two. Treatment is a within-subject effect, allowing each subject's LA alone response to serve as the control for that subject's response with electrical stimulation from the same study day. GLP-1 release was analyzed by repeated measures analyses of variance (ANOVA) on all eleven conditions with LA alone or LA plus electrical stimulation as a repeated factor. The mean and SEM reported in the tables below are based on 2-6 rats per condition with data from two replicates of each electrical stimulation condition averaged per rat. The P values are reported based on repeated measures analyses of variance (ANOVA) for each analysis and for the pairwise comparisons. The data were log-transformed prior to analyses to better satisfy the underlying statistical modeling assumptions of equal variability and sampling from populations with normal distributions.

[2] = test system: segments of duodenum, jejunum ileum, colon, esophagus, stomach; assay: GLP-1 release from segments of the entire GI tract incubated in linoleic acid; format: cell-based, rat; conditions: LA 3 mg/mL, 45 minutes (FIG. 2)
[3] = test system: isolated ileum; assay: Muscle tone of isolated ileum (force transducer); format: cell-based, rat; conditions: for Change in muscle tone of isolated ileum after 40 min compared to KRB buffer: P<0.05 by ANOVA
Procedure: as §1
Muscle tone and contractile amplitude (calculated as the average cyclic minimum and maximum, respectively) were determined for 5 min periods, pre- (˜5 min before) and post-treatment (40 min after start). The tone and amplitude at −5 and +40 minutes for each condition was compared to that condition's baseline by one-way ANOVA.

NC1=N[C@H](O)[C@H]2[C@H]3O[C@]4(O)O[C@@H]([C@@H](O)[C@@]2(N1)[C@@H]4O)[C@]3(O)CO [TTX, tetrodotoxin]
Effect of TTX alone on GLP-1 release [1]: no effect
Effect of tetrodotoxin on the two-fold increase in GLP-1 evoked by direct electrical stimulation of ileal tissue [1]: did not prevent

CCCCC/C=C\C/C=C\CCCCCCCC(=O)O [LA, linoleic acid]
GLP-1 release, LA alone (mean ± SEM) ([1]; paired control for 0.15 Hz 0.7 V 300 ms): 17.9 ± 4.1 pM
GLP-1 release, LA alone (mean ± SEM) ([1]; paired control for 0.15 Hz 2 V 5 ms): 12.1 ± 4.0 pM
GLP-1 release, LA alone (mean ± SEM) ([1]; paired control for 0.15 Hz 5 V 5 ms): 17.6 ± 5.9 pM
GLP-1 release, LA alone (mean ± SEM) ([1]; paired control for 0.15 Hz 10 V 5 ms): 19.5 ± 9.0 pM
GLP-1 release, LA alone (mean ± SEM) ([1]; paired control for 0.15 Hz 20 V 5 ms): 12.5 ± 1.7 pM
GLP-1 release, LA alone (mean ± SEM) ([1]; paired control for 0.4 Hz 14 V 5 ms): 11.0 ± 2.8 pM
GLP-1 release, LA alone (mean ± SEM) ([1]; paired control for 0.4 Hz 14 V 300 ms): 12.7 ± 2.4 pM
GLP-1 release, LA alone (mean ± SEM) ([1]; paired control for 4 Hz 14 V 5 ms): 8.6 ± 1.8 pM
GLP-1 release, LA alone (mean ± SEM) ([1]; paired control for 20 Hz 14 V 5 ms): 14.4 ± 5.9 pM
GLP-1 release, LA alone (mean ± SEM) ([1]; paired control for 40 Hz 14 V 5 ms): 10.2 ± 2.1 pM
GLP-1 release, LA alone (mean ± SEM) ([1]; paired control for 80 Hz 14 V 5 ms): 20.6 ± 3.4 pM
GLP-1 release, LA + E-stim (mean ± SEM) ([1]; LA 3 mg/mL 45 min plus electrical stimulation 0.15 Hz 0.7 V 300 ms, p 0.257 vs LA alone): 22.1 ± 4.2 pM
GLP-1 release, LA + E-stim (mean ± SEM) ([1]; LA 3 mg/mL 45 min plus electrical stimulation 0.15 Hz 2 V 5 ms, p 0.948 vs LA alone): 11.1 ± 1.0 pM
GLP-1 release, LA + E-stim (mean ± SEM) ([1]; LA 3 mg/mL 45 min plus electrical stimulation 0.15 Hz 5 V 5 ms, p 0.344 vs LA alone): 22.6 ± 9.4 pM
GLP-1 release, LA + E-stim (mean ± SEM) ([1]; LA 3 mg/mL 45 min plus electrical stimulation 0.15 Hz 10 V 5 ms, p 0.311 vs LA alone): 29.4 ± 6.6 pM
GLP-1 release, LA + E-stim (mean ± SEM) ([1]; LA 3 mg/mL 45 min plus electrical stimulation 0.15 Hz 20 V 5 ms, p 0.212 vs LA alone): 16.5 ± 3.7 pM
GLP-1 release, LA + E-stim (mean ± SEM) ([1]; LA 3 mg/mL 45 min plus electrical stimulation 0.4 Hz 14 V 5 ms, p 0.761 vs LA alone): 10.4 ± 1.8 pM
GLP-1 release, LA + E-stim (mean ± SEM) ([1]; LA 3 mg/mL 45 min plus electrical stimulation 0.4 Hz 14 V 300 ms, p 0.056 vs LA alone): 31.3 ± 5.9 pM
GLP-1 release, LA + E-stim (mean ± SEM) ([1]; LA 3 mg/mL 45 min plus electrical stimulation 4 Hz 14 V 5 ms, p 0.838 vs LA alone): 9.1 ± 1.4 pM
GLP-1 release, LA + E-stim (mean ± SEM) ([1]; LA 3 mg/mL 45 min plus electrical stimulation 20 Hz 14 V 5 ms, p 0.152 vs LA alone): 32.6 ± 12.2 pM
GLP-1 release, LA + E-stim (mean ± SEM) ([1]; LA 3 mg/mL 45 min plus electrical stimulation 40 Hz 14 V 5 ms, p 0.016 vs LA alone): 38.1 ± 11.1 pM
GLP-1 release, LA + E-stim (mean ± SEM) ([1]; LA 3 mg/mL 45 min plus electrical stimulation 80 Hz 14 V 5 ms, p 0.391, includes one result designated 100 pM (upper level of detection, actual 178 pM)): 33.7 ± 12.4 pM
LA-evoked increase of GLP-1 in the presence of TTX ([1]; TTX 0.5 μM concurrently with linoleic acid for 45 min (FIG. 7)): persisted
GLP-1 released after 45 mins incubation in LA ([1]; compiled data from 51 distal ileum segments, LA 3 mg/mL, mean ± SEM, KRB buffer alone 3.6 pM): 21.9 ± 2.6 pM
Enhancement of GLP-1 released during incubation with nutrient stimulus by E-stim compared to LA alone ([1]; four electrical stimulation conditions with total charge 1400, 1680, 2800 and 5600 μC): 150-300%
Increase of GLP-1 release by electrical stimulation together with LA over that evoked by LA alone ([1]; in the presence of TTX 0.5 μM, E-stim 14V 0.4 Hz 300 ms, 45 min): 239±64%
LA concentration giving maximal GLP-1 response ([1]; tissue incubated in 1, 3 and 10 mg/mL LA, data not shown): 3 mg/mL
GLP-1 concentration over time ([1]; two segments of ileum incubated in 3 mg/ml LA (FIG. 4)): increased over time
GLP-1 concentration in the bathing medium ([2]; segments of duodenum, jejunum ileum and colon): increased
GLP-1 concentration in the bathing medium ([2]; segments of esophagus or stomach): not
Change in muscle tone of isolated ileum after 40 min compared to KRB buffer ([3]; LA combined with E-stim 14V 40 Hz 5 ms): significant reduction
Change in muscle tone of isolated ileum after 40 min compared to KRB buffer ([3]; LA combined with E-stim 14 V 80 Hz 5 ms): significant reduction
Muscle tone of isolated ileum compared to KRB buffer alone ([3]; LA with E-stim 14V 0.4 Hz 300 ms): not different
Muscle tone of isolated ileum compared to KRB buffer alone ([3]; LA with E-stim 14V 20 Hz 5 ms): not different
Change in muscle tone of isolated ileum after 40 min ([3]; incubation in LA alone (FIG. 9)): tended to decrease
